We go through 16 compounds from PubChem BioAssay AID248 (DTP/NCI, 2004).

The assay relates to L1210 leukemia ip in BDF1 mice, survival T/C. Briefly: NCI In Vivo Anticancer Drug Screen. Data for tumor model L1210 Leukemia (intraperitoneal) in B6D2F1 (BDF1) mice. The conditions noted are these: endpoint: mean survival time, higher = longer survival. The method in brief:
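Transplantable tumor model; survival measured in treated vs vehicle control mice. Value = treated/control.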

[1] abbreviates: dose: 100.0 mg/kg/injection, schedule: Q01DX001 (ip), vehicle: saline.
Setting [2] is: dose: 100.0 mg/kg/injection, schedule: Q01DX009 (ip), vehicle: saline.
Where [3] appears, read: dose: 200.0 mg/kg/injection, schedule: Q01DX001 (ip), vehicle: saline.
Setting [4] is: dose: 200.0 mg/kg/injection, schedule: Q01DX009 (ip), vehicle: saline.
The mark [5] stands for this setting: dose: 400.0 mg/kg/injection, schedule: Q01DX001 (ip), vehicle: saline.
Where [6] appears, read: dose: 400.0 mg/kg/injection, schedule: Q01DX009 (ip), vehicle: saline.
Setting [7] is: dose: 100.0 mg/kg/injection, schedule: Q04DX003 (ip), vehicle: saline.
[8] abbreviates: dose: 200.0 mg/kg/injection, schedule: Q04DX003 (ip), vehicle: saline.
Where [9] appears, read: dose: 400.0 mg/kg/injection, schedule: Q04DX003 (ip), vehicle: saline.
[10] abbreviates: dose: 100.0 mg/kg/injection, schedule: Q01DX009 (ip), vehicle: Klucel (hydroxypropylcellulose) (HPC).
[11] abbreviates: dose: 100.0 mg/kg/injection, schedule: Q04DX003 (ip), vehicle: Klucel (hydroxypropylcellulose) (HPC).
The mark [12] stands for this setting: dose: 200.0 mg/kg/injection, schedule: Q01DX009 (ip), vehicle: Klucel (hydroxypropylcellulose) (HPC).
[13] abbreviates: dose: 200.0 mg/kg/injection, schedule: Q04DX003 (ip), vehicle: Klucel (hydroxypropylcellulose) (HPC).
[14] abbreviates: dose: 400.0 mg/kg/injection, schedule: Q01DX009 (ip), vehicle: Klucel (hydroxypropylcellulose) (HPC).
[15] abbreviates: dose: 400.0 mg/kg/injection, schedule: Q04DX003 (ip), vehicle: Klucel (hydroxypropylcellulose) (HPC).
Setting [16] is: dose: 100.0 mg/kg/injection, schedule: Q01DX009 (ip), vehicle: saline with Tween-80.
The mark [17] stands for this setting: dose: 200.0 mg/kg/injection, schedule: Q01DX009 (ip), vehicle: saline with Tween-80.
Setting [18] is: dose: 400.0 mg/kg/injection, schedule: Q01DX009 (ip), vehicle: saline with Tween-80.

Each structure is given as a SMILES string. Toxic doses and inconclusive results are not listed.

Turning to `COC(=O)C1CCC2(C)C=CC(=O)C(C)C2C1` (centres undefined), the T/C (dose: 75.0 mg/kg/injection, schedule: Q04DX003 (ip), vehicle: saline) is 100 % of control; the T/C (dose: 150.0 mg/kg/injection, schedule: Q04DX003 (ip), vehicle: saline) was 100 % of control; the T/C (dose: 300.0 mg/kg/injection, schedule: Q04DX003 (ip), vehicle: saline) was 96 % of control.
In the case of `COc1cccc(C2CCCCC2OS(C)(=O)=O)c1` (centres undefined), the T/C was 97 % of control (dose: 100.0 mg/kg/injection, schedule: Q01DX001 (ip), vehicle: carboxymethylcellulose (CMC)); 92 % of control (dose: 200.0 mg/kg/injection, schedule: Q01DX001 (ip), vehicle: carboxymethylcellulose (CMC)); 95 % of control (dose: 400.0 mg/kg/injection, schedule: Q01DX001 (ip), vehicle: carboxymethylcellulose (CMC)).
With `O=NC1C(Cl)C2CC1C1c3ccccc3C21` (centres undefined), the T/C was 95 % of control under setting [1]; 89 % of control under setting [2]; 104 % of control under setting [3]; 93 % of control under setting [4]; 93 % of control under setting [5]; 89 % of control under setting [6].
For `CC(=O)c1ccc(O)cc1`, the T/C is 114 % of control (dose: 100.0 mg/kg/injection, schedule: Q04DX002 (ip), vehicle: Klucel (hydroxypropylcellulose) (HPC)); 96 % of control (dose: 200.0 mg/kg/injection, schedule: Q04DX002 (ip), vehicle: Klucel (hydroxypropylcellulose) (HPC)); 96 % of control (dose: 400.0 mg/kg/injection, schedule: Q04DX002 (ip), vehicle: Klucel (hydroxypropylcellulose) (HPC)).
`CC(O)C(C)(O)C(=O)O` (centres undefined): the T/C under setting [2] is 100 % of control; the T/C under setting [7] is 104 % of control; the T/C under setting [4] was 90 % of control; the T/C under setting [8] is 95 % of control; the T/C under setting [9] was 101 % of control.
As to `CCc1ccc2c(c1)N(CCCN(CCCl)CCCl)c1ccccc1S2`, the T/C is 107 % of control (dose: 1.56 mg/kg/injection, schedule: Q01DX009 (ip), vehicle: saline with Tween-80); 97 % of control (dose: 3.12 mg/kg/injection, schedule: Q01DX001 (ip), vehicle: saline with Tween-80); 102 % of control (dose: 3.12 mg/kg/injection, schedule: Q01DX009 (ip), vehicle: saline with Tween-80); 97 % of control (dose: 6.25 mg/kg/injection, schedule: Q01DX001 (ip), vehicle: saline with Tween-80); 100 % of control (dose: 6.25 mg/kg/injection, schedule: Q01DX009 (ip), vehicle: saline with Tween-80); 110 % of control (dose: 6.25 mg/kg/injection, schedule: Q04DX003 (ip), vehicle: saline with Tween-80). Moreover, the T/C by setting is: (dose: 12.5 mg/kg/injection, schedule: Q01DX001 (ip), vehicle: saline with Tween-80) 111 % of control; (dose: 12.5 mg/kg/injection, schedule: Q01DX009 (ip), vehicle: saline with Tween-80) 102 % of control; (dose: 12.5 mg/kg/injection, schedule: Q04DX003 (ip), vehicle: saline with Tween-80) 111 % of control; (dose: 25.0 mg/kg/injection, schedule: Q04DX003 (ip), vehicle: saline with Tween-80) 111 % of control; (dose: 50.0 mg/kg/injection, schedule: Q04DX003 (ip), vehicle: saline with Tween-80) 111 % of control.
As for `O=C(Nc1ccccc1)OCC1CC2CCC1C2` (centres undefined), the T/C reads like this: under setting [10], 96 % of control; under setting [11], 95 % of control; under setting [12], 94 % of control; under setting [13], 93 % of control; under setting [14], 96 % of control; under setting [15], 93 % of control.
With `CN(C)c1ccc(CN2CCCN(Cc3ccc(N(C)C)cc3)C2c2ccccc2O)cc1`, the T/C under setting [16] is 100 % of control; the T/C under setting [11] is 97 % of control; the T/C under setting [17] is 107 % of control; the T/C under setting [13] is 100 % of control; the T/C under setting [18] is 106 % of control; the T/C under setting [15] is 97 % of control.
On to `O=C1C=CC(=O)N1`, for which the T/C runs as follows: (dose: 0.62 mg/kg/injection, schedule: Q01DX009 (ip), vehicle: saline) 90 % of control; (dose: 1.25 mg/kg/injection, schedule: Q01DX009 (ip), vehicle: saline) 93 % of control; (dose: 1.25 mg/kg/injection, schedule: Q04DX003 (ip), vehicle: saline) 92 % of control; (dose: 2.5 mg/kg/injection, schedule: Q01DX009 (ip), vehicle: saline) 90 % of control; (dose: 2.5 mg/kg/injection, schedule: Q04DX003 (ip), vehicle: saline) 96 % of control; (dose: 3.74 mg/kg/injection, schedule: Q01DX009 (ip), vehicle: saline with Tween-80) 96 % of control. Also, under “dose: 5.0 mg/kg/injection, schedule: Q01DX001 (ip), vehicle: acetone”, the T/C was 95 % of control.
Take `c1ccc(COc2ccc(Nc3ccccc3)cc2)cc1`: the T/C by setting is: under setting [10], 98 % of control; under setting [11], 106 % of control; under setting [12], 100 % of control; under setting [13], 103 % of control; under setting [14], 102 % of control; under setting [15], 94 % of control.
Turning to `C=CN1C(=O)NC(C)(CC(C)C)C1=O` (centres undefined), the T/C reads like this: under setting [16], 104 % of control; under setting [17], 91 % of control; under setting [18], 92 % of control.
As for `CC(C)=NOC(=O)N(C)C`, the T/C was 93 % of control under setting [1], 96 % of control under setting [3] and 91 % of control under setting [5].
Turning to `Cc1nc(C(=O)O)c(=O)[nH]c1C`, the T/C is, setting by setting: (dose: 50.0 mg/kg/injection, schedule: Q01DX009 (ip), vehicle: water) 103 % of control; (dose: 100.0 mg/kg/injection, schedule: Q01DX009 (ip), vehicle: water) 103 % of control; (dose: 100.0 mg/kg/injection, schedule: Q04DX003 (ip), vehicle: water) 102 % of control; (dose: 200.0 mg/kg/injection, schedule: Q01DX009 (ip), vehicle: water) 101 % of control; (dose: 200.0 mg/kg/injection, schedule: Q04DX003 (ip), vehicle: water) 101 % of control.
`O=NN(CCCl)C(=O)Nc1ccc2[nH]c3ccccc3c2c1`: the T/C was 120 % of control (dose: 90.0 mg/kg/injection, schedule: Q01DX009 (ip), vehicle: carboxymethylcellulose (CMC)); 108 % of control (dose: 260.0 mg/kg/injection, schedule: Q01DX009 (ip), vehicle: Klucel (hydroxypropylcellulose) (HPC)); 157 % of control (dose: 266.0 mg/kg/injection, schedule: Q01DX009 (ip), vehicle: carboxymethylcellulose (CMC)); 88 % of control (dose: 520.0 mg/kg/injection, schedule: Q01DX009 (ip), vehicle: Klucel (hydroxypropylcellulose) (HPC)); 108 % of control (dose: 600.0 mg/kg/injection, schedule: Q01DX009 (ip), vehicle: carboxymethylcellulose (CMC)).
In the case of `O=C(Nc1ccccc1)Nc1ncn[nH]1`, the T/C is 97 % of control (dose: 75.0 mg/kg/injection, schedule: Q01DX001 (ip), vehicle: carboxymethylcellulose (CMC)); 92 % of control (dose: 150.0 mg/kg/injection, schedule: Q01DX001 (ip), vehicle: carboxymethylcellulose (CMC)); 90 % of control (dose: 300.0 mg/kg/injection, schedule: Q01DX001 (ip), vehicle: carboxymethylcellulose (CMC)).
For `N/C=N/O`, the T/C is, setting by setting: (dose: 12.5 mg/kg/injection, schedule: Q01DX009 (ip), vehicle: saline) 105 % of control; (dose: 25.0 mg/kg/injection, schedule: Q01DX009 (ip), vehicle: saline) 105 % of control; (dose: 50.0 mg/kg/injection, schedule: Q01DX009 (ip), vehicle: saline) 111 % of control; under setting [2], 111 % of control; under setting [7], 101 % of control; under setting [4], 121 % of control. Also, the T/C by setting is: under setting [8], 111 % of control; under setting [6], 158 % of control; under setting [9], 97 % of control.
